# Source: US11299760B2 (Amgen Inc., priority 2013, dated 2022)
# Key:
# Format in all cases: cell-based, Chinese hamster
# [1] = test system: recombinant CHO cell line producing an antibody (MAb A); test: six day batch assay, cell culture parameters (VCD, viability, titer); settings: for Titer / VCD / Viability: day 6
# Method: Cells were centrifuged at 1500 rpm for five minutes and seeded at 2×10^6 cells per ml into batch production medium in a 24 deep-well plate at a final volume of 3 ml.
# Cell density and viability were measured by Guava easyCyte flow cytometer (Milipore, Billerica, Mass.) with the ViaCount application. Cultures were spun down, supernatants were filtered on 0.4 micron filters, and were analyzed for titer and glycan distribution.
# Antibody titer was measured by loading filtered cell culture supernatants over a POROS A/20 Protein A column (Applied Biosystems, Carlsbad, Calif.) equilibrated with 20 mM Tris, […], pH 7.0 buffer. Antibody elution was performed with 220 mM acetic acid, […], pH 2.6 buffer at a mobile phase flow rate of 4.0 ml/min. Eluted antibody was detected at a wavelength of 280 nm. Antibody concentration was determined based on a standard curve with a reference antibody standard. For high molecular weight measurement, antibodies were purified from spent medium supernatants on ATOLL columns (ATOLL-Bio Inc USA, Lawrance, Kans.) and were then analyzed using size exclusion chromatography.
# Cell culture performance was assessed via viable cell density (VCD), viability and titer measurements of harvested samples. Each bar represents an average result for duplicate cell culture samples. Each value is an average of duplicates.
# Cells producing MAb C = test: mock perfusion assay, glycan analysis
# Method: Mock perfusion assay is a small scale, plate-based assay that is designed to mimic perfusion conditions in bioreactors through daily medium exchanges. For a 10-day mock perfusion assay, passaging cultures of various production cell lines were diluted 1:5 into chemically defined base perfusion medium in a 24 deep-well plate at a final volume of 3 ml per well. Mock perfusion was initiated on day 3 when the cells were spun down at 1000 rpm for 5 minutes and 25% of each spent culture medium was exchanged with the equivalent volume of fresh perfusion media. Subsequent medium exchange percentages were 40% on days 4-8 and 50% on day 9. Exchanged supernatants were stored at 4° C. prior to analysis.
# Analysis of cell culture parameters was also started on day 3; viable cell density and viability were analyzed using the ViaCount Guava assay as previously described. Glucose was measured daily starting on day 3 and was maintained at 12 g/l. Stored supernatants were analyzed for antibody titer as described previously. Samples of supernatant fluid from days 6, 8 and 10 were also analyzed for the presence and type of glycans by HILIC analysis.
# Equivalent volumes of methanol were added daily to control cultures (columns 1 and 2 of the 24-well plate). This scheme is depicted below:
# Total high mannose values (Total HM column) and the corresponding distributions into high mannose species from Man5 through Man9 were determined for purified antibody samples collected on day 10. Each value shown in Table 4 represents an average of duplicates.
# MAb C producing cells = test: GM130 immunofluorescence microscopy of Golgi; settings: day 10; increasing monensin culminating at 100 nM from days 7-10
# Method: (§1) On day 10, cell pellets were washed once with cold PBS and fixed in 4% paraformaldehyde for 10 minutes on ice. Cells were then washed once in again in cold PBS and stored at 4° C. until they were immunofluorescently stained as described below
# (§2) Monensin is known to cause gross changes in Golgi architecture characterized by swollen and fragmented cisternae. The structure of the Golgi of CHO production cell lines after monensin treatment was analyzed using a panel of five different commercially available antibodies against various Golgi proteins with a passaging culture of recombinant cells producing MAb A using immunofluorescence microscopy.
# (§3) Next, day 10 control and monensin-treated mock perfusion cultures of MAb A producing cells and MAb C producing cells were subjected to immunofluorescence microscopy using GM130 antibody. Paraformaldehyde fixed cell pellets were permeablized with 0.1% TritonX-100 made in PBS. Pellets were washed with PBSA (0.5% BSA in PBS) and incubated with GM130 antibody (BD Biosciences, San Jose, Calif.) diluted 1:50 in PBSA. Cells were washed thrice with PBSA and incubated with Alexa 488 conjugated mouse secondary antibody (Invitrogen, Grand Island, N.Y.) diluted 1:1000 in PBSA. […] Images were captured using Zeiss 510 microscope (Carl Zeiss, Inc., Jena, Germany) with 63× water immersion lens and analyzed using LSM image browser software.
# MAb A producing cells = test: GM130 immunofluorescence microscopy of Golgi; settings: day 10 mock perfusion cultures; monensin-treated vs control
# Method: as §1, §2, §3
# [2] = constant monensin 25 nM, day 10
# [3] = increasing monensin (to 100 nM), day 10
compound,measurement,setting,value
CC[C@@]1([C@@H]2O[C@@H]([C@H]3O[C@@](O)(CO)[C@H](C)C[C@@H]3C)C[C@@H]2C)CC[C@H]([C@]2(C)CC[C@]3(C[C@H](O)[C@@H](C)[C@@H]([C@@H](C)[C@@H](OC)[C@H](C)C(=O)O)O3)O2)O1 [monensin],Titer,[1]; 0.1 nM monensin added day 1,3.835 g/L
same,VCD,[1]; 0.1 nM monensin added day 1,10 10^6c/ml
same,Viability,[1]; 0.1 nM monensin added day 1,81%
same,Titer,[1]; 0.5 nM monensin added day 1,4.415 g/L
same,VCD,[1]; 0.5 nM monensin added day 1,11 10^6c/ml
same,Viability,[1]; 0.5 nM monensin added day 1,81%
same,Titer,[1]; 1 nM monensin added day 1,4.265 g/L
same,VCD,[1]; 1 nM monensin added day 1,11 10^6c/ml
same,Viability,[1]; 1 nM monensin added day 1,82%
same,Titer,[1]; 5 nM monensin added day 1,3.45 g/L
same,VCD,[1]; 5 nM monensin added day 1,11 10^6c/ml
same,Viability,[1]; 5 nM monensin added day 1,82%
same,Titer,[1]; 10 nM monensin added day 1,3.635 g/L
same,VCD,[1]; 10 nM monensin added day 1,11 10^6c/ml
same,Viability,[1]; 10 nM monensin added day 1,81%
same,impact on cell culture parameters,[1]; 25 nM bolus on day 0 or 200 nM or 100 nM bolus on day 3,no negative impact on cell culture parameters
same,Titer,[1]; 25 nM monensin added day 1,5.22 g/L
same,VCD,[1]; 25 nM monensin added day 1,11 10^6c/ml
same,Viability,[1]; 25 nM monensin added day 1,85%
same,Titer,[1]; 50 nM monensin added day 1,2.025 g/L
same,VCD,[1]; 50 nM monensin added day 1,5 10^6c/ml
same,Viability,[1]; 50 nM monensin added day 1,72%
same,Titer,[1]; 100 nM monensin added day 3,3.515 g/L
same,VCD,[1]; 100 nM monensin added day 3,11 10^6c/ml
same,Viability,[1]; 100 nM monensin added day 3,86%
same,Titer,[1]; 200 nM monensin added day 3,4.43 g/L
same,VCD,[1]; 200 nM monensin added day 3,11 10^6c/ml
same,Viability,[1]; 200 nM monensin added day 3,87%
same,Titer,[1]; 500 nM monensin added day 3,3.055 g/L
same,VCD,[1]; 500 nM monensin added day 3,5 10^6c/ml
same,Viability,[1]; 500 nM monensin added day 3,41%
same,Total HM,"Cells producing MAb C; constant monensin 25 nM from day 3, Day 6",49.6%
same,Total HM,"Cells producing MAb C; constant monensin 25 nM from day 3, Day 8",31.1%
same,Total HM,"Cells producing MAb C; constant monensin 25 nM from day 3, Day 10",30.9%
same,Man6,Cells producing MAb C; [2],5.3%
same,Man7,Cells producing MAb C; [2],3.6%
same,Man8a,Cells producing MAb C; [2],0.7%
same,Man8b,Cells producing MAb C; [2],1.4%
same,Man9,Cells producing MAb C; [2],0.3%
same,Total HM,"Cells producing MAb C; increasing monensin (25 nM day 4, 50 nM days 5-6, 100 nM days 7-9), Day 6",56.6%
same,Total HM,"Cells producing MAb C; increasing monensin (25 nM day 4, 50 nM days 5-6, 100 nM days 7-9), Day 8",67.6%
same,Total HM,"Cells producing MAb C; increasing monensin (25 nM day 4, 50 nM days 5-6, 100 nM days 7-9), Day 10",65.8%
same,Man5,Cells producing MAb C; [3],31.6%
same,Man6,Cells producing MAb C; [3],13.7%
same,Man7,Cells producing MAb C; [3],12.3%
same,Man8a,Cells producing MAb C; [3],1.0%
same,Man8b,Cells producing MAb C; [3],5.9%
same,Man9,Cells producing MAb C; [3],1.3%
same,Golgi morphology (GM130 staining),MAb C producing cells,punctate distribution of GM130 protein
same,Golgi morphology (GM130 staining),MAb A producing cells,No morphological difference
